Experimental findings from patent US12606568B2, “SMARCA degraders and uses thereof” (Kymera Therapeutics, Inc., priority 2020, dated 2026) are described below.

Common to all, as to assay type: cell-based
One test concerns the target T1, SMARCA4 (Homo sapiens, UniProt P51532).
T1 construct: SMARCA2 and SMARCA4 protein degradation in MV4-11 cells; endogenous in cells; host or cells: MV4-11
Nature of the test: SMARCA4 Western blot MV4-11 degradation. The note with it: for Dmax: MV4-11, MV4-11 cells, read-out: SMARCA4 MSD MV411 degradation 24 h: average Dmax %; for Dmax / DC50: 24 h; for DC50: read-out: SMARCA4 MSD MV411 degradation 24 h: Mean external-Abs DC50. Here is the method:
(§1) Example 54. SMARCA2 and SMARCA 4 Western Blot MV4-11 Degradation
(§2) Cells were seeded into 6-well plates (MV4-11: 4×10^6 cells/well/1 ml) and 1 ml of 2× compound solution was added into the well to make the final concentration and the plates were mixed well and incubated for 24 hours (No cytotoxicity was observed). The cell were collected with media and spun at 3000 rpm for 5 minutes. The supernatant was aspirated and the well and the cells were washed with cold PBS once and combined for centrifugation again; the supernatant aspirated again. 200 ul pre-chilled RIPA lysis buffer (Boston BioProducts BP-115D) with protease/phosphatase inhibitor (Roche 05892791001/Roche 04906837001) was directly added into the tube to lyze the cells for 20 minutes on ice. The cell lysate were collected into EP tubes and spun at 13000 rpm for 20 minutes and 72 ul supernatant was transferred to a fresh EP tube containing 18 ul of 5× loading buffer (Beyotime Bio P0015) to make the loading samples. The samples were heated to 100° C. for 10 minutes and cooled to RT and microcentrifuged. 20 ul of samples were loaded onto SDS-PAGE gel (Novex, WG1402BOX) and the gel was run at 80 V for 20 minutes and 120 V for 1.5 hours. The samples were electrotransfer to a NC membrane using wet-transfer method with 250 mA for 2.5 hours. The membrane was blocked with LICOR blocking buffer (LI-COR, 927-50000) for 1 hour. The membrane was washed three times with TBST (CST #9997S), 5 minutes each. Incubation was performed with primary antibody prepared in blocking buffer with 0.1% Tween-20 (Solarbio, P8220) at 4° C. overnight (Anti-SMARCA2/BRM antibody (ab15597) 1:500; Anti-BRG1 antibody [EPR3912] (ab108318) 1:1000; Rabbit anti-Baf180 antibody [EPR15860] (Abcam, ab196022) 1:1000; mouse anti-beta-Actin (8H10D10) (CST #3700) 1:10000). The membrane was washed three times with TBST, 5 minutes each. Incubation with secondary antibody was performed for 1 hour at RT (anti-rabbit IgG (Licor, 926-32211) 1:5000; anti-mouse IgG (LI-COR, 926-68070) 1:5000). The membrane was washed three times with TBST, 5 minutes each and lastly the LiCOR was read.
(§3) The letter codes for SMARCA degradation potency (DC50) include: A (<100 nM), B (100-500 nM), C (501-1000 nM), and D (>1000 nM). The letter codes for the percentage of SMARCA degradation after 24 hours (Dmax %) include: A (>90% degradation), B (>70-90% degradation), C (50-70% degradation), and D (<50% degradation).
Background: In western blotting, separated proteins are transferred to a membrane and probed.

Test [1] addresses T2, SMARCA2 (Homo sapiens, UniProt P51531). Nature of the test: MSD SMARCA2 degradation in A549 cell line. The settings on record: for Dmax: A549, A549 cells; for Dmax / DC50: 24 h; for DC50: read-out: SMARCA2 MSD A549 degradation 24 h: Average external-Abs DC50. Further details: endogenous in cells. Here is the method:
Example 53. MSD SMARCA2 Degradation in A549 Cell Line
Cells were seeded into 96-well plates (A549 cells: 2×10^4 cells/well/100 ul media) abd incubated overnight. The next day, 200 nl compound were added into the intermediate plate with Echo (Labcyte 550) from source plate containing a 3-fold serial dilution from top concentration of 1 mM. The culture medium was changed with 80 ul of fresh medium and 80 ul of 2× compound solution was added into the well to make a final concentration of 1000 nM, 333.3 nM, 111.1 nM, 37.04 nM, 12.35 nM, 4.115 nM, 1.372 nM, 0.457 nM, 0.152 nM and 0 nM (DMSO). The wells were mixed and then incubated for 24 hours. The media was aspirated from the cultures and 60 ul pre-chilled PIPA lysis buffer (Boston BioProducts BP-115D) with protease/phosphatase inhibitor (Roche 05892791001/Roche 04906837001) was added into the well to lyze the cells for 20 minutes at 4° C. The MSD plate (L15XA) was coated with 40 ul cell lysate and incubated at 4° C. overnight. The next day, the plate was washed three times with TBST (CST #9997S), 150 ul/well. The MSD plates was blocked with 150 ul blocking buffer per well and shaked for 1 hr at R^†, 600 rpm. The blocking buffer was 3% Blocker A (MSD, R93BA-4) in TBST. The MSD plate was washed three times with 150 ul/well of TBST and 25 ul/well of detection antibody (Rabbit anti-SMARCA2/BRM antibody, 100 μg/ml, ab223735) was added at final concentration of 1 ug/mi diluted in 1% o Blocking buffer and shaken for 1 hour at R^†, 600 rpm. The MSD plate was washed three times with 150 ul/well of TBST and 25 ul/well of SULFO-TAG anti-rabbit antibody (MSD, R32AB-1) was added at final concentration of 1 μg/ml diluted in […] Blocking buffer and shaken for 1 hour at R^†, 600 rpm. The MSD plate was washed three times with 150 ul/well of TBST and 150 ul/well of 2×MSD reading buffer diluted from 4× (MSD, R92TC-2) with water was added. Lastly, the MSD instrument was read.
The letter codes for SMARCA2 degradation potency (DC50) include: A (<100 nM), B (100-500 nM), C (501-1000 nM), and D (>1000 nM). The letter codes for the percentage of SMARCA2 degradation after 24 hours (Dmax % o) include: A (>90% o degradation), B (>70-90% o degradation), C (50-70% o degradation), and D (<50% degradation).

Test [2] has as its target T2, SMARCA2. Nature of the test: SMARCA2 Western blot MV4-11 degradation. Set-up: SMARCA2 and SMARCA4 protein degradation in MV4-11 cells; endogenous in cells; host or cells: MV4-11. The settings on record: for Dmax: MV4-11, MV4-11 cells, read-out: SMARCA2 MSD MV411 degradation 24 h: average Dmax %; for Dmax / DC50: 24 h; for DC50: read-out: SMARCA2 MSD MV411 degradation 24 h: Mean external-Abs DC50. The procedure: as §1, §2, §3

T2 sequence (P51531 whole entry): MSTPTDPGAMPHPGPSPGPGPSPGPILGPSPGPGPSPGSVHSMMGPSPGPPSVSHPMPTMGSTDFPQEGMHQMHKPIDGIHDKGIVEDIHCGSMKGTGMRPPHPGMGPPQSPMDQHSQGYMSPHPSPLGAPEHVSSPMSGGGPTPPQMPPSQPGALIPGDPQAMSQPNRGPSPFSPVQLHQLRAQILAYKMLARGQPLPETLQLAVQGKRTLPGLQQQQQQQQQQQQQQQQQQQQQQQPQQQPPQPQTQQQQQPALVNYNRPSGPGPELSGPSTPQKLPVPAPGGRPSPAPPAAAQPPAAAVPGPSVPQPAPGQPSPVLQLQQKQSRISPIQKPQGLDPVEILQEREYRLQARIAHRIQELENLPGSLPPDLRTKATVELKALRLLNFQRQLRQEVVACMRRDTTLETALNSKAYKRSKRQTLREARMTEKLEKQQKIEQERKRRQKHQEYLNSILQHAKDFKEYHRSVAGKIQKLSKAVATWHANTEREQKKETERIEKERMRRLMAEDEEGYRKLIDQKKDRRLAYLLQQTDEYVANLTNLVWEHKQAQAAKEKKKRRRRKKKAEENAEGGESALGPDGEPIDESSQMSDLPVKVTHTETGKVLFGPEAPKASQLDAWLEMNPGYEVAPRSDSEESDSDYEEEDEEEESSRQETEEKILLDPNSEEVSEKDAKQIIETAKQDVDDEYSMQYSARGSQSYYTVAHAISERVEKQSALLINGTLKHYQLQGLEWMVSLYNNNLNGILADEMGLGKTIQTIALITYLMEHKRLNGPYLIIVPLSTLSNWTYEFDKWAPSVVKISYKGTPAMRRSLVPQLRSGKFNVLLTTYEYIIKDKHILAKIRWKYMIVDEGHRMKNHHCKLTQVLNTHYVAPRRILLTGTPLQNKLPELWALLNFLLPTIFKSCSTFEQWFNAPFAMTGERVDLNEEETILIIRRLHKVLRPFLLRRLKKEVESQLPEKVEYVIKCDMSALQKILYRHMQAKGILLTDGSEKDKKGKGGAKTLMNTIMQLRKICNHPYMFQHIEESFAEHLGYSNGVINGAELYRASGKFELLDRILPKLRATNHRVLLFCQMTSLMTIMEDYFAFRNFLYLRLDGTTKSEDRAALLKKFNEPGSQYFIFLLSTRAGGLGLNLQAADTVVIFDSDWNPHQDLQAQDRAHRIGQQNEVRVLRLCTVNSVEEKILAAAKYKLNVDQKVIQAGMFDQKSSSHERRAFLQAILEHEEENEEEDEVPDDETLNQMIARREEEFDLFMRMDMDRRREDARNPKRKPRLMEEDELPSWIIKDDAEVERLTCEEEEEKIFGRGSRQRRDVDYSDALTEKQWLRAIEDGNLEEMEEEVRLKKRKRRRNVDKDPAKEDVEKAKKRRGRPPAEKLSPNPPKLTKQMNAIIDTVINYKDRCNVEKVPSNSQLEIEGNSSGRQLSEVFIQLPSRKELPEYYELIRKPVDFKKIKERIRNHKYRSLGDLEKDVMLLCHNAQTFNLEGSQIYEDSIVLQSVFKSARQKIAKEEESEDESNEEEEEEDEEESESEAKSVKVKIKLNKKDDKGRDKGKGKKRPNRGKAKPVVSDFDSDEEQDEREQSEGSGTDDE
T1 sequence (P51532 whole entry): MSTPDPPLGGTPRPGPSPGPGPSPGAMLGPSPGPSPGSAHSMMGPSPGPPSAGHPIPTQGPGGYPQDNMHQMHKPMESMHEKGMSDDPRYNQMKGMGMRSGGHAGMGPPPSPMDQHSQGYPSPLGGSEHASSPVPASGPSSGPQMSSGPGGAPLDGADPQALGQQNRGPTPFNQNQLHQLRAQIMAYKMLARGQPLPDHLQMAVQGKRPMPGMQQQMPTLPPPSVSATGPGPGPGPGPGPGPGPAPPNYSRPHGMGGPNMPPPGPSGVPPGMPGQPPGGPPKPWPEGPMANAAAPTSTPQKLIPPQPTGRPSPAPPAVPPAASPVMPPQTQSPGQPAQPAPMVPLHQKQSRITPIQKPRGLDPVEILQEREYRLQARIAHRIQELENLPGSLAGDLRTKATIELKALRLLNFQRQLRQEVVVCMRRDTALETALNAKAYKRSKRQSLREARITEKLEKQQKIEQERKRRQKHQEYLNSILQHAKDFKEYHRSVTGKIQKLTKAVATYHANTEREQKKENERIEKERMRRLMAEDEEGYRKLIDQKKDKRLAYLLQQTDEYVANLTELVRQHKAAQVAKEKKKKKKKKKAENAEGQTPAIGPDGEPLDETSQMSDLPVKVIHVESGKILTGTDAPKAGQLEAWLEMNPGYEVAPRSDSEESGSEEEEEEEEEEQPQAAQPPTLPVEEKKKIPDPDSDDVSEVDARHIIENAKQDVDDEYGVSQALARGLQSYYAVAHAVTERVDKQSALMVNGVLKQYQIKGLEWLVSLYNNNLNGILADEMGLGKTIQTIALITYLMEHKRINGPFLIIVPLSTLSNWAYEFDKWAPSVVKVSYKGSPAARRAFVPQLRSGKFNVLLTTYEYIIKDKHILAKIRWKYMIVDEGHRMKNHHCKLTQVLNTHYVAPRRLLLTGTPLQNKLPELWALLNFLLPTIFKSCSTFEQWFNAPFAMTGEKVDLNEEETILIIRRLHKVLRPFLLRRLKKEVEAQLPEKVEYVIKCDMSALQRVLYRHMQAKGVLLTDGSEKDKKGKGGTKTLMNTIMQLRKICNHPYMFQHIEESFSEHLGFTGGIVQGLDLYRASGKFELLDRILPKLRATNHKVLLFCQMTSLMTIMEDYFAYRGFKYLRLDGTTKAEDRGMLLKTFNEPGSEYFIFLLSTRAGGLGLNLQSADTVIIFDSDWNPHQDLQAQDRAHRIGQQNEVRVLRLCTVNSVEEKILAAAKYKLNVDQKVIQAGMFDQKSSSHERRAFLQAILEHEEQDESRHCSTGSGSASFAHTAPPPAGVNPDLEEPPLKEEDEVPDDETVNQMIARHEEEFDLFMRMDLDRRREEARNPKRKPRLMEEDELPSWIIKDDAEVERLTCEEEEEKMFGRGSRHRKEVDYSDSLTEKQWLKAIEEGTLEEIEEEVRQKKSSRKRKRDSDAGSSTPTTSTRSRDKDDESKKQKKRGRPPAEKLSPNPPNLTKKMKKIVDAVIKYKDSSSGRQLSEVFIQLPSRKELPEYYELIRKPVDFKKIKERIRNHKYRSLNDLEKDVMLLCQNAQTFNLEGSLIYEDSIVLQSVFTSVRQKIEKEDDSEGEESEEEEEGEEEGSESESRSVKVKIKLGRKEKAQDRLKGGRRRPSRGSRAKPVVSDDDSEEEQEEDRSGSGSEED

In the case of `Cc1ncsc1-c1ccc(CNC(=O)[C@@H]2C[C@@H](O)CN2C(=O)[C@@H](NC(=O)[C@H]2CC3(C2)C[C@H](N2CCC(c4ccc(N5C6CCC5CN(c5cc(-c7ccccc7O)nnc5N)C6)cc4)CC2)C3)C(C)(C)C)nc1` (stereo partly drawn) [I-23, (2S,4R)-1-((2S)-2-(6-(4-(4-(3-(3-amino-6-(2-hydroxyphenyl)pyridazin-4-yl)-3,8-diazabicyclo[3.2.1]octan-8-yl)phenyl)piperidin-1-yl)spiro[3.3]heptane-2-carboxamido)-3,3-dimethylbutanoyl)-4-hydroxy-N-((5-(4-methylthiazol-5-yl)pyridin-2-yl)methyl)pyrrolidine-2-carboxamide], the maximal degradation (Dmax) at SMARCA4, on SMARCA2 [1] and at SMARCA2 [2] was < 50% in each case. For the same molecule, the DC50 (as a rule, the concentration giving 50% degradation) was > 1 µM on SMARCA4 (MV4-11 cells), > 1 µM at SMARCA2 [1] (A549 cells) and 0.1 to 0.5 µM on SMARCA2 [2] (MV4-11 cells).
Take `Cc1ncsc1-c1ccc(CNC(=O)[C@@H]2C[C@@H](O)CN2C(=O)[C@@H](NC(=O)[C@H]2CC3(C2)C[C@H](N2CCC(Oc4ccc(N5C6CCC5CN(c5cc(-c7ccccc7O)nnc5N)C6)cn4)CC2)C3)C(C)(C)C)cc1` (stereo partly drawn) [I-39, (2S,4R)-1-((2S)-2-(6-(4-((5-(3-(3-amino-6-(2-hydroxyphenyl)pyridazin-4-yl)-3,8-diazabicyclo[3.2.1]octan-8-yl)pyridin-2-yl)oxy)piperidin-1-yl)spiro[3.3]heptane-2-carboxamido)-3,3-dimethylbutanoyl)-4-hydroxy-N-(4-(4-methylthiazol-5-yl)benzyl)pyrrolidine-2-carboxamide]: the maximal degradation (Dmax) (in general, the greatest extent of degradation seen) is > 90% at SMARCA4, 50 to 70% on SMARCA2 [1] and 70 to 90% on SMARCA2 [2]. In addition, the DC50 on SMARCA4 (MV4-11 cells) was > 1 µM; at SMARCA2 [1] (A549 cells) it was > 1 µM; at SMARCA2 [2] (MV4-11 cells), 0.1 to 0.5 µM.
For the molecule `Cc1ncsc1-c1ccc(CNC(=O)[C@@H]2C[C@@H](O)CN2C(=O)[C@@H](NC(=O)CN(C)Cc2cnc(N3C4CCC3CN(c3cc(-c5ccccc5O)nnc3N)C4)nc2)C(C)(C)C)cc1` [I-37, (2S,4R)-1-((2S)-2-(2-(((2-(3-(3-amino-6-(2-hydroxyphenyl)pyridazin-4-yl)-3,8-diazabicyclo[3.2.1]octan-8-yl)pyrimidin-5-yl)methyl)(methyl)amino)acetamido)-3,3-dimethylbutanoyl)-4-hydroxy-N-(4-(4-methylthiazol-5-yl)benzyl)pyrrolidine-2-carboxamide], the maximal degradation (Dmax) at SMARCA4, on SMARCA2 [1] and on SMARCA2 [2] was > 90% each time. In addition, the DC50 is < 0.1 µM at SMARCA4 (MV4-11 cells), 0.501 to 1 µM at SMARCA2 [1] (A549 cells) and < 0.1 µM on SMARCA2 [2] (MV4-11 cells).
For the molecule `Cc1ncsc1-c1ccc(C2(NC(=O)[C@@H]3C[C@@H](O)CN3C(=O)[C@@H](NC(=O)[C@H]3CC4(C3)C[C@H](N3CCC(c5cnc(N6C7CCC6CN(c6cc(-c8ccccc8O)nnc6N)C7)nc5)CC3)C4)C(C)(C)C)CC2)cc1` (single isomer, unassigned) [I-4], on SMARCA4 (MV4-11 cells), the “SMARCA4 MSD MV411 degradation 24 h: average Dmax %” value is reported as “A (A (>90% degradation))” and the half-maximal degradation concentration (DC50) was < 0.1 µM. Moreover, at SMARCA2 [1] (A549 cells), the “SMARCA2 MSD A549 degradation 24 h: Average Dmax %” value was “A (A (>90% o degradation))” and the half-maximal degradation concentration (DC50) was 0.1 to 0.5 µM. Besides, at SMARCA2 [2] (MV4-11 cells), the “SMARCA2 MSD MV411 degradation 24 h: average Dmax %” value is given as “A (A (>90% degradation))” and the DC50 was < 0.1 µM.
Regarding `Cc1ncsc1-c1ccc(CNC(=O)[C@@H]2C[C@H](O)CN2C(=O)[C@@H](NC(=O)[C@H]2CC3(C2)C[C@H](N2CCC(c4cnc(N5C6CCC5CN(c5cc(-c7ccccc7O)nnc5N)C6)nc4)CC2)C3)C(C)(C)C)cc1` (stereo partly drawn) [I-80, (2S,4S)-1-((2S)-2-(6-(4-(2-(3-(3-amino-6-(2-hydroxyphenyl)pyridazin-4-yl)-3,8-diazabicyc-lo[3.2.1]octan-8-yl)pyrimidin-5-yl)piperidin-1-yl)spiro[3.3]heptane-2-carboxamido)-3,3-dimethylbutanoyl)-4-hydroxy-N-(4-(4-methylthiazol-5-yl)benzyl)pyrrolidine-2-carbox-amide], the DC50 on SMARCA4 (MV4-11 cells) and at SMARCA2 [1] (A549 cells) was > 1 µM each time.
